In patent US20250034091A1, “Small molecule inhibitors of lanosterol synthase” (Board of Regents, The University of Texas System, priority 2022, published 2025):
Read-outs that look alike come from different tables or passages of the source.

Legend:
Mut6 cells [1] = test: Mut6 cell survival / anti-proliferative activity; assay type: cell-based, murine; conditions: read-out: IC50, viability / anti-proliferative activity in Mut6
Mut6 cells [2] = test: rescue of toxicity by exogenous lanosterol or cholesterol in Mut6 cells; assay type: cell-based, murine
Excerpt: Taken together, we concluded that the levels of EPC resulting from 1 treatment are sufficient to downregulate SREBP target genes, upregulate LXR target genes, and block cell proliferation. Through its coordinated action on the critical transcriptional regulators of cholesterol homeostasis, LXRs and SREBPs, EPC can cause lethal reductions in cellular cholesterol levels. To test this hypothesis, we evaluated cell proliferation following treatment with increasing doses of either S-EPL or 1 in the presence of exogenous lanosterol or cholesterol conjugated to methyl beta-cyclodextrin (MCD), which aids sterol solubility and delivery. Supplementing cells with either lanosterol or cholesterol rescued Mut6 cells from the toxic effects of either S-EPL or 1. These observations provide evidence that the anti-proliferative activity of 1 is due to the production of EPC and the resulting depletion of cellular cholesterol.
This latter observation raised the hypothesis that Ro 48-8071 inhibited one or more enzymes downstream of LSS thereby blunting EPC synthesis. To evaluate whether Ro 48-8071 inhibits the synthesis of EPC downstream of EPL, we cultured cells with isotopically labeled EPL (d6-EPL) and measured d6-EPC production following compound treatment. Ro 48-8071 inhibited the production of d6-EPC while 1 had no effect on d6-EPC production. […]

recombinant human LSS = molecular target: T1, recombinant human LSS (Homo sapiens, UniProt P48449); test: cell-free in vitro reaction with recombinant LSS; assay type: biochemical
T1 construct: made in house; host or cells: E. coli
T1 sequence (P48449 1-732): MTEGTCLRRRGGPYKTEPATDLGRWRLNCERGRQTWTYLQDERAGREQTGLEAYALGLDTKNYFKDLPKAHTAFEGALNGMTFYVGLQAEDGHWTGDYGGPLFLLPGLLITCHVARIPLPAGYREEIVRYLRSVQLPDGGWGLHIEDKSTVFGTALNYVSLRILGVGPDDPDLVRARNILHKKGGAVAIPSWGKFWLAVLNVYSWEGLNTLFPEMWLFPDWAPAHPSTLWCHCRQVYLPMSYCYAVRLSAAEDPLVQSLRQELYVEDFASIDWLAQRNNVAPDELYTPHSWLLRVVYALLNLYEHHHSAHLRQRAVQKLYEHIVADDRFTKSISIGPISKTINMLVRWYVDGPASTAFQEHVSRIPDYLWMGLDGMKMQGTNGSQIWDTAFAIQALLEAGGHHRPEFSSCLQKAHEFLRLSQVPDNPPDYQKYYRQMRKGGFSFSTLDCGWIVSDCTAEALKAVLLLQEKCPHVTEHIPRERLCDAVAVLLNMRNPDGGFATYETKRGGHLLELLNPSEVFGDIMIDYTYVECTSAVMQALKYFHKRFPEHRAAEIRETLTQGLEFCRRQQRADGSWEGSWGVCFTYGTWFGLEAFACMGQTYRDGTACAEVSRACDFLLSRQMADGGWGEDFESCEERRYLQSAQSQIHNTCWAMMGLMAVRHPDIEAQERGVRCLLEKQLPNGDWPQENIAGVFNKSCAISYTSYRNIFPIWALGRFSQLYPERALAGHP
Description: Recombinant LSS purified from E. coli converted OS to lanosterol in a time- and dose-dependent manner. Of note, lanosterol production was saturated over time, which may be the consequence of substrate depletion or product inhibition. Regardless, we evaluated enzymatic activity over 30 minutes with 64 μM of substrate, conditions under which the reaction remained linear. […] Similar experiments with three different analogs (3, 6, 14) support the notion that inhibition of Lss enzyme activity correlates with anti-GBM activity in Mut6 cells. It was notable that the concentration of compound required to inhibit LSS activity in vitro is substantially higher than the concentration required to block cell growth. One possible explanation for this difference is that the conditions of the in vitro reaction, which includes non-ionic detergents in an aqueous buffer, influence substrate or compound solubility or binding.
An outstanding question regarding the shunt pathway is how LSS can still convert DOS into EPL in the presence of high concentrations of an inhibitor. […] To address this question, we assessed the efficacy of in vitro conversion of DOS to EPL by LSS. […] Therefore, the conversion of DOS to EPL by LSS in the presence of MM0299 is not simply explained by an increased affinity LSS for DOS. […]

SMILES | IC50 (Mut6 cells [1]) [nM] | increase in the IC50 with exogenous cholesterol (Mut6 cells [2]) [fold] | increase in the IC50 with exogenous lanosterol (Mut6 cells [2]) [fold] | IC50 (recombinant human LSS; 30 minutes, 64 μM substrate, read-out: IC50, LSS in vitro activity (OS to lanosterol)) [nM] | IC50 (recombinant human LSS; in vitro, read-out: IC50, DOS conversion to EPL by LSS) [nM]
C=CCN(C)CCCCCCOc1ccc(C(=O)c2ccc(Br)cc2)c(F)c1 [Ro 48-8071, reference compound] | 11.2 | 479.4 | 21.7 | – | –
COc1ccc(C(=O)COc2ccc(N3C(=O)[C@@H]4[C@@H]5C=C[C@@H]([C@H]6C[C@@H]56)[C@@H]4C3=O)cc2)cc1 [compound 1, (3aR,4R,4aR,5aS,6S,6aS)-2-(4-(2-(4-Methoxyphenyl)-2-oxoethoxy)phenyl)-4,4a,5,5a,6,6a-hexahydro-4,6-ethenocyclopropa[f]isoindole-1,3(2H,3aH)-dione] | – | – | – | 2220 | 1600
